Assay results reported in patent US20240158368A1, “Pyrrolidine Main Protease Inhibitors as Antiviral Agents” (AbbVie Inc., priority 2022, published 2024).
pEC50: −log10 of the molar value.

Assays:
in vitro [1] = conditions: PAMPA
in vitro [2] = conditions: rat, pH 7.4
in vitro [3] = conditions: human, pH 7.4
[4] = system: SARS-CoV-2 (strain USA-WA1/2020); test: microbe, parasite or virus in culture; type: cell-based; conditions: Severe acute respiratory syndrome coronavirus 2; HeLa-ACE2 cells; read-out: Antiviral CoV-2 EC50
SARS-CoV-2 Mpro = SARS-CoV-2 Mpro (Severe acute respiratory syndrome coronavirus 2 (2019-nCoV) (SARS-CoV-2), UniProt P0DTD1); type: biochemical
OC43 Mpro = OC43 Mpro (Human coronavirus OC43 (HCoV-OC43), UniProt P0C6X6); type: biochemical
MERS Mpro = MERS Mpro (Middle East respiratory syndrome-related coronavirus (isolate United Kingdom/H123990006/2012) (MERS-CoV) (Betacoronavirus England 1), UniProt K9N7C7); test: biochemical
229E Mpro = 229E Mpro (Human coronavirus 229E (HCoV-229E), UniProt P0C6X1); type: biochemical
Sequence of 229E Mpro (P0C6X1 2966-3267 limits assumed): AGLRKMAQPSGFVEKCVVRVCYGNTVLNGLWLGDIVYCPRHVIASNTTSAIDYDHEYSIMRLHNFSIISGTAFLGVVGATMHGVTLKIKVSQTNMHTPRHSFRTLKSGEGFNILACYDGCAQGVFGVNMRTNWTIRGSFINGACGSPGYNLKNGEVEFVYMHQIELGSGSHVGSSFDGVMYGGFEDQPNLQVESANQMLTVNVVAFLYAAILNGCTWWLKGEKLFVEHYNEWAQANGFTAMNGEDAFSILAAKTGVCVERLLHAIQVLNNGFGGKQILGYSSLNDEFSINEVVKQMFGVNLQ

Sequence of OC43 Mpro (P0C6X6 3247-3549 limits assumed): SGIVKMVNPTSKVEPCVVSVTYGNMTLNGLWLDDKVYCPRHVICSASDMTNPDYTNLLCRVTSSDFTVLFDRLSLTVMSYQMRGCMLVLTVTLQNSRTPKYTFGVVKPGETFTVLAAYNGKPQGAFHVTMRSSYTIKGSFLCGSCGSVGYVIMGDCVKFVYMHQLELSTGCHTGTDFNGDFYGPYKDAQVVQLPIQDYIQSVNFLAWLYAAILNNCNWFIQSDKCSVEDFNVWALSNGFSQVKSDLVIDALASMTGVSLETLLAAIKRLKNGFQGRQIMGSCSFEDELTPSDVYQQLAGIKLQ
Sequence of MERS Mpro (K9N7C7 3248-3553 limits assumed): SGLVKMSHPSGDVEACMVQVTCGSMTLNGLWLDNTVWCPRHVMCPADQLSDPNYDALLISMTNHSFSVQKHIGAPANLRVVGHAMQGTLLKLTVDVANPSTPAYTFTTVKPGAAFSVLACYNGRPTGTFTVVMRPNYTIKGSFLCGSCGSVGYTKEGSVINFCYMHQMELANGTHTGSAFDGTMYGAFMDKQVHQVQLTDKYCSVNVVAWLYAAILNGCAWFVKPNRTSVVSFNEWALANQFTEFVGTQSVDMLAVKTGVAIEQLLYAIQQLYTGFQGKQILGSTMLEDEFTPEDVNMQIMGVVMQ

Row | Structure (SMILES) | Papp (in vitro [1]) [×10⁻⁶ cm/s] | CLint scaled (in vitro [2]; microsomes) [mL/min/kg] | CLint scaled (in vitro [3]; microsomes) [mL/min/kg] | pEC50 [4] | pEC50 (SARS-CoV-2 Mpro) | pEC50 (OC43 Mpro) | pEC50 (MERS Mpro) | pEC50 (229E Mpro) | CLint scaled (in vitro [2]) [mL/min/kg] | CLint scaled (in vitro [3]) [mL/min/kg]
1 | N#Cc1cc(C(=O)N2CCOCC2)c(N2CC[C@H](NC(=O)c3cc(=O)[nH]c4c(F)cccc34)C2)c(C(F)(F)F)c1 [Compound 4] | 5.55 | < 41.7 | < 25 |  |  |  |  |  |  | 
2 | N#Cc1cc(C(=O)N2CCOCC2)c(N2CC[C@@H](NC(=O)c3c(F)c(=O)[nH]c4ccccc34)C2)c(C(F)(F)F)c1 [Compound 6] | 3.22 | 81.7 | < 35 | 7.66 | 9.11 | 8.84 | 8.60 | 8.63 |  | 
3 | Cc1[nH]c(=O)c(F)c(C(=O)N[C@@H]2CCN(c3c(C(=O)N4CCOCC4)cc(C#N)cc3C(F)(F)F)C2)c1Cl [Compound 11] | 0.49 | < 61.7 |  |  | 9.14 | 7.99 | 8.79 | 8.27 |  | 
4 | Cc1cc(C(=O)N[C@@H]2CCN(c3c(C(=O)N4CCOCC4)cc(C#N)cc3C(F)F)C2)c(F)c(=O)[nH]1 [Compound 12] | 0.23 | < 41.7 | < 25 |  | 8.99 | 7.63 | 8.58 | 7.04 |  | 
5 | N#Cc1cc(C(=O)N2CCCCC2)c(N2CC[C@@H](NC(=O)c3cc(=O)[nH]c4c(F)cccc34)C2)c(C(F)(F)F)c1 [Compound 15] | 15.2 |  |  |  |  |  | 8.48 |  | 220 | 76.7
6 | C[C@@]12COC[C@@H]1CN(C(=O)c1cc(C#N)cc(C(F)(F)F)c1N1CC[C@@H](NC(=O)c3cc(=O)[nH]c4c(F)cccc34)C1)C2 [Compound 16] | 7.38 |  |  |  |  |  | 8.84 |  | 313 | 93.3
7 | N#Cc1cc(C(=O)N2CC3CC(C2)O3)c(N2CC[C@@H](NC(=O)c3cc(=O)[nH]c4c(F)cccc34)C2)c(C(F)(F)F)c1 [Compound 17] | 4.6 |  |  |  |  |  | 8.90 |  | < 48.3 | < 28.3
8 | N#Cc1cc(C(=O)N2C[C@H]3COC[C@H]3C2)c(N2CC[C@@H](NC(=O)c3cc(=O)[nH]c4c(F)cccc34)C2)c(C(F)(F)F)c1 [Compound 18] | 7.19 |  |  | 7.87 |  |  | 8.87 |  | 95 | 38.3
9 | COCCN1CCN(C(=O)c2cc(C#N)cc(C(F)(F)F)c2N2CC[C@@H](NC(=O)c3cc(=O)[nH]c4c(F)cccc34)C2)CC1 [Compound 19] | 6.68 |  |  |  |  |  | 8.84 |  | 200 | < 36.7
10 | N#Cc1cc(C(=O)N2CCCC2)c(N2CC[C@@H](NC(=O)c3cc(=O)[nH]c4c(F)cccc34)C2)c(C(F)(F)F)c1 [Compound 20] | 13.8 |  |  |  |  |  | 8.77 |  | 142 | < 36.7
11 | N#Cc1cc(C(=O)N2CCC(F)(F)C2)c(N2CC[C@@H](NC(=O)c3cc(=O)[nH]c4c(F)cccc34)C2)c(C(F)(F)F)c1 [Compound 21] | 8.89 |  |  |  |  |  | 8.89 |  | 128 | 55
12 | CCS(=O)(=O)N1CCN(C(=O)c2cc(C#N)cc(C(F)(F)F)c2N2CC[C@@H](NC(=O)c3cc(=O)[nH]c4c(F)cccc34)C2)CC1 [Compound 25] | 2.06 |  |  |  |  |  | 8.85 |  |  | 
13 | N#Cc1cc(C(=O)N2CCNC(=O)C2)c(N2CC[C@@H](NC(=O)c3cc(=O)[nH]c4c(F)cccc34)C2)c(C(F)(F)F)c1 [Compound 27] | 0.11 | < 58.3 | < 35 | 5.55 | 9.20 | 8.06 | 8.87 |  |  | 
14 | Cc1cc(C(=O)N[C@@H]2CCN(c3c(C(=O)NCC(C)C)cc(C#N)cc3C(F)(F)F)C2)cc(=O)[nH]1 [Compound 29] | 3.51 | < 51.7 | < 30 |  | 7.86 | 6.42 | 8.05 | 6.17 |  | 
15 | CN1CCN(C(=O)c2cc(C#N)cc(C3CC3)c2N2CC[C@@H](NC(=O)c3cc(=O)[nH]c4c(F)cccc34)C2)CC1 [Compound 41] | 0.59 | 280 | 147 |  | 9.35 | 9.16 | 9.09 | 8.67 |  | 
16 | O=C(N[C@@H]1CCN(c2c(OC(F)(F)F)cc(Cl)cc2C(=O)N2CCOCC2)C1)c1cc(=O)[nH]c2c(F)cccc12 [Compound 44] | 15.3 | 292 | 41.7 |  | 9.28 | 8.70 | 8.97 | 8.50 |  | 
17 | O=C(N[C@H]1CCN(c2c(C(=O)N3CCOCC3)cc(Br)cc2C(F)(F)F)C1)c1cc(=O)[nH]c2c(F)cccc12 [Compound 47] | 15.7 | 182 | 46.7 |  |  |  |  |  |  | 
18 | O=C(N[C@@H]1CCN(c2c(C(=O)N3CCOCC3)cc(Br)cc2C(F)(F)F)C1)c1c(F)c(=O)[nH]c2ccccc12 [Compound 53] | 8.9 | 615 | 217 |  | 9.22 | 9.15 | 8.73 | 8.70 |  | 
19 | O=C(N[C@@H]1CCN(c2c(C(=O)N3CCCCC3)cc(Br)cc2C(F)(F)F)C1)c1cc(=O)[nH]c2c(F)cccc12 [Compound 64] | 14.9 | 1070 | 272 |  | 9.28 | 8.54 | 8.86 | 8.02 |  | 
20 | O=C(N[C@@H]1CCN(c2c(C(=O)N3CC4COCC4C3)cc(Br)cc2C(F)(F)F)C1)c1cc(=O)[nH]c2c(F)cccc12 (stereo partly shown) [Compound 66] | 15 | 607 | 297 |  | 9.32 | 8.69 | 8.89 | 8.24 |  | 
21 | O=C(N[C@@H]1CCN(c2c(C(=O)N3CCCC3)cc(Br)cc2C(F)(F)F)C1)c1cc(=O)[nH]c2c(F)cccc12 [Compound 68] | 14.7 | 1120 | 317 |  | 9.22 | 8.45 | 8.74 | 7.98 |  | 
22 | O=C(N[C@@H]1CCN(c2c(C(=O)N3CCC(F)(F)C3)cc(Br)cc2C(F)(F)F)C1)c1cc(=O)[nH]c2c(F)cccc12 [Compound 69] | 14.5 | 1040 | 303 |  | 9.17 | 8.31 | 8.75 | 7.81 |  | 
23 | O=C(N[C@@H]1CCN(c2c(C(=O)N3CC(F)(F)C3)cc(Br)cc2C(F)(F)F)C1)c1cc(=O)[nH]c2c(F)cccc12 [Compound 70] | 13.9 | 845 | 205 |  | 8.99 | 7.95 | 8.71 | 7.47 |  | 
24 | COCCN(C)C(=O)c1cc(Br)cc(C(F)(F)F)c1N1CC[C@@H](NC(=O)c2cc(=O)[nH]c3c(F)cccc23)C1 [Compound 72] | 19.6 | 1280 | 562 |  | 8.95 | 7.72 | 8.55 | 7.41 |  | 
25 | O=C(N[C@@H]1CC(=O)N(c2c(C(=O)N3CCOCC3)cc(Br)cc2C(F)(F)F)C1)c1c(F)c(=O)[nH]c2c(F)c(F)ccc12 [Compound 77] | 3.46 | < 65 | < 38.3 |  | 8.92 | 7.55 | 8.77 | 6.91 |  | 
